Consider 1 compound from ChEMBL document CHEMBL2074480, “Characterization of tetrandrine, a potent inhibitor of P-glycoprotein-mediated multidrug resistance” (Cancer Chemother Pharmacol, 2004).

This data set deals with ATP-dependent translocase ABCB1 (Homo sapiens, UniProt P08183). Description: TP_TRANSPORTER: drug resistance (vincristine) in KBV200 cells. The format is functional, cell-based.
Chain of ATP-dependent translocase ABCB1 (P08183 whole entry): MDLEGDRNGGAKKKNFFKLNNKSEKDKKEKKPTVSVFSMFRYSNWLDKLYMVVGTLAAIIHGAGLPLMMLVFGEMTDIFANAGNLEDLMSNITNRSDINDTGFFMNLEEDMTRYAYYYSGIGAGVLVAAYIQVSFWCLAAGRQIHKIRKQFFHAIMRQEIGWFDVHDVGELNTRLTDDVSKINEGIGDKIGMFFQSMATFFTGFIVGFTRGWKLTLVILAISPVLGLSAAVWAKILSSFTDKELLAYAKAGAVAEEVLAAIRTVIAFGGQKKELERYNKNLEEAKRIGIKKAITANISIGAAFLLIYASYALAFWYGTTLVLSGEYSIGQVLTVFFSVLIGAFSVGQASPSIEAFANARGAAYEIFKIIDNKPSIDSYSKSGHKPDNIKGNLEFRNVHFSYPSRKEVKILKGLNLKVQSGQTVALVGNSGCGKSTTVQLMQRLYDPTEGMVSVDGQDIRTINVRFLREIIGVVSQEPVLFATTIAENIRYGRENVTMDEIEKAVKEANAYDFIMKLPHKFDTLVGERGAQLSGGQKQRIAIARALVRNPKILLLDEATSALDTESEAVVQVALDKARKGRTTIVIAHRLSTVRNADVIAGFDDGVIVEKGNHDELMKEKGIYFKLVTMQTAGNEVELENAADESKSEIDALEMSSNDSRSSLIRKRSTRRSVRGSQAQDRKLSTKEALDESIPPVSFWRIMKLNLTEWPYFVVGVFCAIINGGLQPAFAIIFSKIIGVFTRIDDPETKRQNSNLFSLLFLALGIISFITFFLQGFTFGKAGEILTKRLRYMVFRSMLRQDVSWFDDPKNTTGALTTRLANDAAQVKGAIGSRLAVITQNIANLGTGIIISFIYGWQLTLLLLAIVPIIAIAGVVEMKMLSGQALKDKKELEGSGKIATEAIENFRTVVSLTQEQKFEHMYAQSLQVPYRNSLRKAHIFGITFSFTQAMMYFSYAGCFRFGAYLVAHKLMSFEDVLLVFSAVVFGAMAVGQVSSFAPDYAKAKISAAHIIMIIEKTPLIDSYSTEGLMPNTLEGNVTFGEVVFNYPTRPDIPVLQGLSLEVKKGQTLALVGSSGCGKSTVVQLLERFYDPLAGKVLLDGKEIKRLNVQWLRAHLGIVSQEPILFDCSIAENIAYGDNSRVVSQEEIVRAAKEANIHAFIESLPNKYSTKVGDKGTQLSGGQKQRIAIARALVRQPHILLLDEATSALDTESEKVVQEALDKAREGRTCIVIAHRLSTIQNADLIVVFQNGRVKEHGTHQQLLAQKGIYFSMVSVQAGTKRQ

Take `COc1ccc2cc1Oc1ccc(cc1)C[C@H]1c3cc(c(OC)cc3CCN1C)Oc1c(OC)c(OC)cc3c1[C@H](C2)N(C)CC3` [FANCHININ]: the Activity entry was “inhibitor [+]”.
